Key:
[1] = biological target: D-Apt49; assay: Homogeneous electrochemical competitive binding assay in Tris buffer; conditions: 5 µM Fc-L-Tym, K^*d fixed at 1.2 µM
Protocol: All experiments were performed in 5 mM Tris buffer (pH 7) containing 10 mM MgCl2 and 50 mM NaCl (Recognition Buffer, RBr). The L-Tym concentration is always 5 µM. For cyclic voltammetric experiments, 1 µM [Os(bpy)3]2+ with 5 µM 1-Tym in a droplet of 50 µL RBr was used. So, before each experiment, the droplet is shaking with a micropipette. This procedure is repeated until we obtain a reproducible and stable voltammogram. Mother solution of Fc-1-Tym was a […] solution in DMF. This product is conserved at 4°C and seal with parafilm. Before each experiment, this solution is diluted 10 times in stabilized DMF, such as 0.2 µL in 50 µL of RBr leads to 5 µM of Fc-1-Tym.
Cyclic voltammetry measurements were performed with an AUTOLAB PGSTAT 12 potentiostat/galvanostat controlled by computer, and the data were acquired using GPES 4.9007 software (EcoChemie, The Netherlands). Small self-contained electrochemical cells made of 3 screen-printed electrodes on a flat substrate were used for all experiments. The electrodes were printed using a DEK model-65 screen-printer. Working electrodes were 4 mm diameter screen-printed carbon electrodes prepared using a commercial carbon ink (Electrodag PF-470 A) deposited on the top of an underlying Ag layer (Electrodag 418 SS). Counter electrode was obtained using an Ag ink (Electrodag 418 SS).
Before experiments, the screen-printed carbon electrodes were coated with bovine serum albumin (BSA) by immersing the electrodes in a 1 mg/mL BSA solution for 10 minutes at room temperature. The BSA-modified electrodes were next cycled between 0 V and 0.8 V at v = 0.05 V/s, until of the capacitive background current in cyclic voltammetry was stablized.
The competitive assay can be described by the two equilibrated binding reactions 6a and 6b, in which Fc-L-Tym is L-tyrosinamide labeled by a redox-active ferrocene group. The ferrocenyl label was here incorporated on the ―OH position of the phenolic group (Scheme 1). Note that under this condition the catalytic oxidation of the phenolic residue is no more possible and only the ferrocene labeled molecule can be detected. [drawing 63] [drawing 64] with Kd = (CTCR)/CRT [formula] Kd^(*) = (CT^(*)CR)/CRT^(*) [formula] where CR is the concentration of free aptamer receptor. […] Ideally, the two binding constants should be as close as possible (Kd ≈ K^*d). The value of K^*d was determined by monitoring in CV the reversible response of 5 µM Fc-L-Tym solution as a function of increasing concentrations of D-Apt49.
The competitive binding assay was achieved from two separate solutions containing a starting mixture of 5 µM Fc- L-Tym and 3 µM or 10 µM D-Apt49, and to which an increasing amount of L-Tym was added. […]

[2] = biological target: D-Apt49; assay: Homogeneous electrochemical competitive binding assay in 20% fetal bovine serum
Protocol: • Figure 1: Electrochemically competitive assay of the invention. Left-hand column: before the addition of the sample: a first redox signal is measured. Right-hand column: after the addition of a sample containing the target to be detected or measured: a second redox signal is measured. (A) Homogeneous electrochemically competitive assay: the presence of the target disrupts the complex formed between the oligonucleotide ligand and the redox-labeled target. […] (B) Heterologous electrochemically competitive assay, wherein the oligonucleotide ligand is attached to a solid phase: the presence of the target disrupts the complex formed between the oligonucleotide ligand and the redox-labeled target, thereby inducing a better detection of the redox labeled-target. […] (C) Heterologous electrochemically competitive assay, wherein the oligonucleotide ligand is attached to the electrode: the presence of the target disrupts the complex formed between the oligonucleotide ligand and the redox-labeled target, thereby reducing the detection of the redox labeled-target. […] (f) CV of 1 µM [Os(bpy)3]^2+ alone. […] Error bars: standard deviations from 3 measurements. Plain lines: fits of eq 5 to the experimental data. • Figure 3: (A) CVs (v = 0.05 V s^-1) of 5 mM Tris buffer (pH 7.0) containing 50 mM NaCl, 10 mM Mg^2+, 5 µM Fc-L-Tym and (a) 0 µM, (b) 1 µM, (c) 2 µM, (d) 3 µM, (e) 4 µM (f) 5 µM (g) 7.5 µM (h) 10 µM (i) 12.5 µM and (j) 15 µM of D-Apt49. (B) Normalized anodic peak current response as a function of aptamer concentration. Each data is the average of 3 measurements. Error bars are standard deviations. Plain line: fit of eq 5 to the experimental data. • Figure 4: Competitive binding curves performed in (A) 5 mM Tris buffer (pH 7 + 50 mM NaCl + 10 mM MgCl2) or (B) 20% fetal bovine serum (simply diluted with a 4 mM MgCl2 aqueous solution) as a function of (●, ★, ▼, Δ) L-Tym or (○) D-Tym concentration. (*) Assay of 5 µM L-Tym in the presence of 5 mM D-Tym. The Fc-L-Tym concentration was always C^0T*= 5 µM, whereas the D-Apt49 concentrations were C^0R: (●) 3, (★,○,*) 10, (▼) 40 and (Δ) 100 µM.
The enantiospecificity of the assay was next characterized using the same methodology but for solutions containing the D-Tym enantiomer. […] To evaluate the enantiospecific performance of the aptamer, the assay of trace amount of L-Tym in the presence of a large excess of D-Tym was examined and, as reported in Figure 4A, it has been found possible to detect as low as 5 µM L-Tym in the presence of 5 mM D-Tym. This remarkable performance means that as low as 0.1 % of an enantiomeric impurity in a nonracemic mixture can be assayed in a very short analysis time (<1 min). This is competitive with conventional separation techniques, and one order of magnitude lower than the 1% currently attainable by NMR. Finally, the ability to perform an assay under realistic biological conditions was examined. For such purpose, homogenous electrochemical competitive binding assays of 5-fold diluted fetal bovin serum samples spiked with known amounts of […] were then performed (Figure 4B).

[3] = biological target: anti-L-tyrosinamide aptamer; conditions: previously determined by fluorescence polarization; cited from earlier work

Kd ([1]; 3 µM D-Apt49, Tris buffer): 2.8 ± 0.4 µM
Kd ([1]; 10 µM D-Apt49, Tris buffer): 2.2 ± 0.6 µM
Kd ([2]; 5-fold diluted fetal bovine serum, average of the fitted curves, read-out: Kd (average value)): 10 µM
Kd ([2]; 20% fetal bovine serum, 5 µM Fc-L-Tym, 40 µM D-Apt49, read-out: Kd): 9 µM
Kd ([2]; 20% fetal bovine serum, 5 µM Fc-L-Tym, 100 µM D-Apt49, read-out: Kd): 11 µM
SMILES: NC(=O)[C@@H](N)Cc1ccc(O)cc1 [L-Tym, L-tyrosinamide]
Kd [3]: 1.7 to 2.2 µM
